Results on five molecules are retold here after paper PMC8704707 (Pharmaceuticals, 2021).

Data set [1] relates to Staphylococcus aureus ATCC 29213. Briefly: Antibacterial microdilution broth method (EUCAST). It is filed as cell-based. For orientation: Dilution methods test growth across graded concentrations, often in twofold steps.
The test system of data set [2] is methicillin-resistant Staphylococcus aureus ATCC 43300. Briefly: Antibacterial microdilution broth method (EUCAST). Type of data set: cell-based. To be noted: ATCC 43300 / MRSA.
In data set [3] the test system is Staphylococcus epidermidis ATCC 12228. Briefly: Antibacterial microdilution broth method (EUCAST). Type of data set: cell-based.
The subject of data set [4] is Enterococcus faecalis ATCC 29212. Briefly: Antibacterial microdilution broth method (EUCAST). It is filed as cell-based.
For data set [5], the system named is Escherichia coli ATCC 25922. Briefly: Antibacterial microdilution broth method (EUCAST). Type of data set: cell-based.
For data set [6], the system named is Acinetobacter baumannii ATCC 19606. Briefly: Antibacterial microdilution broth method (EUCAST). Type of data set: cell-based.
The test system of data set [7] is Pseudomonas aeruginosa ATCC 27853. Briefly: Antibacterial microdilution broth method (EUCAST). Type of data set: cell-based.
Data set [8] has as its system Candida albicans ATCC 24443. Briefly: microbe, parasite or virus in culture. It is filed as cell-based.
The test system of the next data set is Candida krusei ATCC 6258. Briefly: microbe, parasite or virus in culture. It is filed as cell-based. To be noted: Pichia kudriavzevii.
Data set [9] concerns Candida parapsilosis ATCC 22019. Briefly: microbe, parasite or virus in culture. To be noted: Lodderomyces parapsilosis. It is filed as cell-based.
Data set [10] relates to Candida tropicalis ATCC 750. Briefly: microbe, parasite or virus in culture. Type of data set: cell-based.
The test system of data set [11] is Trichophyton interdigitale ATCC 9533. Briefly: microbe, parasite or virus in culture. Type of data set: cell-based.
In data set [12] the target is AChE from electric eel (EeAChE) (Electrophorus electricus, UniProt O42275). Briefly: biochemical. Type of data set: biochemical. To be noted: for IC50: read-out: IC50 AChE.
In data set [13] the target is BuChE from equine serum (EqBuChE) (Equus caballus, UniProt P81908). Briefly: biochemical. To be noted: read-out: IC50 BuChE.
Data set [14] concerns Klebsiella pneumoniae ATCC 10031. To be noted: for MIC KP 24 h: 24 h incubation; for MIC KP 48 h: 48 h incubation.
Where [15] appears, read: ATCC29213, 24 h, read-out: MIC SA 24 h.
Setting [16] is: ATCC29213, 48 h, read-out: MIC SA 48 h.
[17] abbreviates: ATCC12228, 24 h, read-out: MIC SE 24 h.
The mark [18] stands for this setting: ATCC12228, 48 h, read-out: MIC SE 48 h.
Where [19] appears, read: ATCC29212, 24 h, read-out: MIC EF 24 h.
Where [20] appears, read: ATCC29212, 48 h, read-out: MIC EF 48 h.
The mark [21] stands for this setting: ATCC25922, 24 h, read-out: MIC EC 24 h.
Setting [22] is: ATCC25922, 48 h, read-out: MIC EC 48 h.
Where [23] appears, read: ATCC19606, 24 h, read-out: MIC ACI 24 h.
The mark [24] stands for this setting: ATCC19606, 48 h, read-out: MIC ACI 48 h.
[25] abbreviates: ATCC27853, 24 h, read-out: MIC PA 24 h.
Where [26] appears, read: ATCC27853, 48 h, read-out: MIC PA 48 h.
Where [27] appears, read: ATCC24443, 24 h, read-out: MIC CA 24 h.
The mark [28] stands for this setting: ATCC24443, 48 h, read-out: MIC CA 48 h.
Where [29] appears, read: ATCC6258, 24 h, read-out: MIC CK 24 h.
Where [30] appears, read: ATCC6258, 48 h, read-out: MIC CK 48 h.
Where [31] appears, read: ATCC22019, 24 h, read-out: MIC CP 24 h.
Where [32] appears, read: ATCC22019, 48 h, read-out: MIC CP 48 h.
Setting [33] is: ATCC750, 24 h, read-out: MIC CT 24 h.
Where [34] appears, read: ATCC750, 48 h, read-out: MIC CT 48 h.
The mark [35] stands for this setting: ATCC9533, 72 h, read-out: MIC TI 72 h.
[36] abbreviates: ATCC9533, 120 h, read-out: MIC TI 120 h.
The mark [37] stands for this setting: mean ± SD, n = three independent experiments, ATCh 40 µM.
[38] abbreviates: mean ± SD, n = three independent experiments, BTCh 40 µM.

The structures appear in SMILES notation. In brackets after ≈: the same amount, converted by molar mass. Several values for one entry are separate records, joined by “and”; a condition that tells them apart may be missing. Identical values can stand only once. Like-named read-outs stand apart in the source and are kept apart here. Bounds are passed on as bounds.

Sequence of BuChE from equine serum (EqBuChE) (P81908 whole entry): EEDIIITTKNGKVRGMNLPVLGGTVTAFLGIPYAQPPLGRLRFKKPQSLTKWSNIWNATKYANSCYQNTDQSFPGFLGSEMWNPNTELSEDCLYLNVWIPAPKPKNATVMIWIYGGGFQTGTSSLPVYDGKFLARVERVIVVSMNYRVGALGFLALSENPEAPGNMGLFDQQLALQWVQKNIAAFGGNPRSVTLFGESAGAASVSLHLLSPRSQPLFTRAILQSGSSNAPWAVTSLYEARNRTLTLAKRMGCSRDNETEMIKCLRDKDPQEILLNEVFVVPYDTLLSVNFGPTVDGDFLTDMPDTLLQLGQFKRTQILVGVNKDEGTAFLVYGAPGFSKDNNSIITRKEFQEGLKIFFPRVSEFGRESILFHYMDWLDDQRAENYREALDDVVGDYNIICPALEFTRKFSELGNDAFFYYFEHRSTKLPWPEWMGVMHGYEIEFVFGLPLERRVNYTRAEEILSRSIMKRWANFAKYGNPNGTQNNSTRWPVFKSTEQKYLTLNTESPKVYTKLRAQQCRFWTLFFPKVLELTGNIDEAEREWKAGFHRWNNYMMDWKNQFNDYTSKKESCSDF
Sequence of AChE from electric eel (EeAChE) (O42275 24-633): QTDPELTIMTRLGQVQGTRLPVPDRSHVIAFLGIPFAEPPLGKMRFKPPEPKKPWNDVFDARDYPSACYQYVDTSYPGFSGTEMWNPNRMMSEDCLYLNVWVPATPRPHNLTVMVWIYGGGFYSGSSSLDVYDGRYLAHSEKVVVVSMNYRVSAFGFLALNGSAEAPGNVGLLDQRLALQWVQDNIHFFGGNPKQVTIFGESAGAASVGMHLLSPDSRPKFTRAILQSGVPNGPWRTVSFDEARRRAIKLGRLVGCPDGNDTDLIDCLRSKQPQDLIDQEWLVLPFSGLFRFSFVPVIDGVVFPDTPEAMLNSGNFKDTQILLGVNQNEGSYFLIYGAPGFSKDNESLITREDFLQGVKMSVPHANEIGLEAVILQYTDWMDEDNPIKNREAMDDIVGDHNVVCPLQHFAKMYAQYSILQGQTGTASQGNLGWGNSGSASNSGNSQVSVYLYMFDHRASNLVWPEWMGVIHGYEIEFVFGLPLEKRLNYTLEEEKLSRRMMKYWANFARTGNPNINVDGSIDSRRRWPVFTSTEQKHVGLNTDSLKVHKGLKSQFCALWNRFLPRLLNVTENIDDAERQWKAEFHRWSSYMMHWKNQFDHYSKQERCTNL
Experimental for HepG2 cells: Cytotoxicity of the tested compounds was measured using the standard hepatic cell line HepG2. The used CellTiter 96® assay is based on the reduction of tetrazolium dye (MTS) in living cells to formazan, which is then determined colorimetrically.

As usually defined, the IC50 is the concentration that inhibits the measured activity by half. On to `[H]/N=C(\N)NN=Cc1cc(Cl)cc(I)c1O` [Compound 1l, (E)-2-(5-Chloro-2-hydroxy-3-iodobenzylidene)hydrazine-1-carboximidamide], for which the MIC came to 500 µM (≈ 169 µg/mL) in data set [1] (setting [15]); 500 µM (≈ 169 µg/mL) in data set [1] (setting [16]); 250 µM (≈ 84.6 µg/mL) in [2] (24 h, read-out: MIC MRSA 24 h); 250 µM (≈ 84.6 µg/mL) in data set [2] (48 h, read-out: MIC MRSA 48 h); 250 µM (≈ 84.6 µg/mL) in data set [3] (setting [17]); 250 µM (≈ 84.6 µg/mL) in data set [3] (setting [18]). Besides, the MIC in data set [4] (setting [19]) is 250 µM (≈ 84.6 µg/mL); in data set [4] (setting [20]), 250 µM (≈ 84.6 µg/mL); in data set [5] (setting [21]) it was 250 µM (≈ 84.6 µg/mL); in data set [5] (setting [22]) it was 250 µM (≈ 84.6 µg/mL); in data set [6] (setting [23]) it was 500 µM (≈ 169 µg/mL); in data set [6] (setting [24]), 500 µM (≈ 169 µg/mL). The MIC in data set [7] (setting [25]) is over 500 µM; in [7] (setting [26]), over 500 µM; in data set [8] (setting [27]), over 500 µM; in [8] (setting [28]), over 500 µM; with Candida krusei ATCC 6258 (setting [29]), 500 µM (≈ 169 µg/mL); in the data set with Candida krusei ATCC 6258 (setting [30]) it was 500 µM (≈ 169 µg/mL). In addition, the MIC in data set [9] (setting [31]) was determined as 500 µM (≈ 169 µg/mL); in data set [9] (setting [32]) it was 500 µM (≈ 169 µg/mL); in [10] (setting [33]) it was 500 µM (≈ 169 µg/mL); in [10] (setting [34]), 500 µM (≈ 169 µg/mL); in data set [11] (setting [35]), 125 µM (≈ 42.3 µg/mL); in data set [11] (setting [36]), 125 µM (≈ 42.3 µg/mL). Moreover, in [12], the “Selectivity AChE/BuChE” value is on record as 4.08. For the same molecule, the IC50 was 22.1 ± 0.55 µM in [12] (setting [37]); < 20 µM and 5.42 µM in data set [13] (setting [38]). Further, the “MIC KP 24 h” value in [14] was found to be 250 µM (≈ 84.6 µg/mL). Also, the “MIC KP 48 h” value in [14] is listed as 250 µM (≈ 84.6 µg/mL).

Take `[H]/N=C(\N)NN=Cc1ccc([N+](=O)[O-])s1` [Compound 1o, (E)-2-[(5-Nitrothiophen-2-yl)methylene]hydrazine-1-carboximidamide]: the MIC is 125 µM (≈ 26.7 µg/mL) in [1] (setting [15]); 250 µM (≈ 53.3 µg/mL) in data set [1] (setting [16]); 125 µM (≈ 26.7 µg/mL) in [2] (24 h, read-out: MIC MRSA 24 h); 250 µM (≈ 53.3 µg/mL) in data set [2] (48 h, read-out: MIC MRSA 48 h); 62.5 µM (≈ 13.3 µg/mL) in [3] (setting [17]); 62.5 µM (≈ 13.3 µg/mL) in data set [3] (setting [18]). The MIC stood at 250 µM (≈ 53.3 µg/mL) in data set [4] (setting [19]); 500 µM (≈ 107 µg/mL) in [4] (setting [20]); 62.5 µM (≈ 13.3 µg/mL) in [5] (setting [21]); 62.5 µM (≈ 13.3 µg/mL) in [5] (setting [22]); 125 µM (≈ 26.7 µg/mL) in data set [6] (setting [23]); 125 µM (≈ 26.7 µg/mL) in data set [6] (setting [24]). Also, the MIC in data set [7] (setting [25]) was 500 µM (≈ 107 µg/mL); in data set [7] (setting [26]), 500 µM (≈ 107 µg/mL); in data set [8] (setting [27]), over 500 µM; in data set [8] (setting [28]), over 500 µM; with Candida krusei ATCC 6258 (setting [29]), 500 µM (≈ 107 µg/mL); in the data set with Candida krusei ATCC 6258 (setting [30]) it was 500 µM (≈ 107 µg/mL). In addition, the MIC was over 500 µM in data set [9] (setting [31]); over 500 µM in [9] (setting [32]); over 500 µM in data set [10] (setting [33]); over 500 µM in data set [10] (setting [34]); 250 µM (≈ 53.3 µg/mL) in data set [11] (setting [35]); 250 µM (≈ 53.3 µg/mL) in data set [11] (setting [36]). The “Selectivity AChE/BuChE” value in [12] is 0.11. Also, the IC50 in [12] (setting [37]) is 31.7 ± 1.34 µM; in [13] (setting [38]), 204 to 286 µM and 286 µM. In data set [14], the “MIC KP 24 h” value is listed as 125 µM (≈ 26.7 µg/mL). In [14], the “MIC KP 48 h” value is 125 µM (≈ 26.7 µg/mL).

As to `N=C(N)NN` [aminoguanidine, hydrazinecarboximidamide, reference compound], the “Selectivity AChE/BuChE” value in data set [12] was determined as 0.23. Further, the IC50 in data set [12] amounted to 75.14 ± 0.74 µM; in [13], 327 ± 18 µM. Moreover, the “Cytotoxicity in HepG2 in words” value in the data set on HepG2 cells is reported as “no significant cytotoxicity”.

On to `NNC(N)=O` [semicarbazide, reference compound], for which, in [12], the “Selectivity AChE/BuChE” value amounted to 0.13 and the IC50 came out at 48.1 ± 0.84 µM. In addition, the half-maximal inhibitory concentration (IC50) in data set [13] worked out at 365 ± 16.8 µM. In addition, the “Cytotoxicity in HepG2 in words” value in the data set on HepG2 cells is “no significant cytotoxicity”.

Consider `NNC(N)=S` [thiosemicarbazide, reference compound], for which, in data set [12], the “Selectivity AChE/BuChE” value is given as 0.14. Further, the IC50 came out at 46.1 ± 1.1 µM in [12] and 327.8 ± 3.22 µM in data set [13]. Also, the “Cytotoxicity in HepG2 in words” value with HepG2 cells is “no significant cytotoxicity”.
